Reference: patent US6984619B1, “Method for protection against tumor metastasis formation” (Arch Development Corporation, priority 1999, dated 2006)
Entries after “also recorded” stand apart in the source; their conditions may differ. Like-named read-outs stand apart in the source and are kept apart here. Blank lines part the entries; values can stand above or below the molecule they belong to.

Key:
MMP-2 = target: T1, MMP-2 (Homo sapiens, UniProt P08253); assay: Gelatin zymography of medium from treated U251 glioma cells, MMP-2; type: cell-based; settings: for reduction of MMP-2 activity/secretion: 10 mM; for reduction of MMP-2 activity/secretion / inhibition of MMP-2 activity/secretion: 24 h
T1 construct: Medium was isolated at the indicated times, centrifuged at 1000 rpm for 5 min to remove debris; endogenous in cells; host or cells: U251 human glioma cells (serum-free conditioned medium)
T1 sequence (P08253 110-660): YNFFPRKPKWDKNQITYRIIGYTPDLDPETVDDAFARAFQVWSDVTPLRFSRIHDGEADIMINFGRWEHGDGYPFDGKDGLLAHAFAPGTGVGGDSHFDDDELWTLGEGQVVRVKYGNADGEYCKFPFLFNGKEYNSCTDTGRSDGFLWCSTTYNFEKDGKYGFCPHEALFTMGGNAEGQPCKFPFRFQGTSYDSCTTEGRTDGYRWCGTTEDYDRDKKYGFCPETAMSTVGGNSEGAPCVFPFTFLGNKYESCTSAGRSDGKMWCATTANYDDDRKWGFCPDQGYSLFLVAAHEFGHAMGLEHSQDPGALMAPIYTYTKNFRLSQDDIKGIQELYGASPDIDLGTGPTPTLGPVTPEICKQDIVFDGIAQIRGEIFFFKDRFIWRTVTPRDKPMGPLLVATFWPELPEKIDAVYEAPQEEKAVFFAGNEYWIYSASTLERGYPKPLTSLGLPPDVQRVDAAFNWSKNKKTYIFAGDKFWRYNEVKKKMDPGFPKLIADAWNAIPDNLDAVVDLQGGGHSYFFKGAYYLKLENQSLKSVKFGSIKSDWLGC
Procedure: (§1) U251 Glioma Cells were grown to confluence in 6-well plates. Medium was removed, the cells washed twice with 37° C. PBS, and serum-free medium added. The cells were treated as follows: • Control—24 h, 48 h 72 h • 40 μM SH—24 h, 48 h 72 h (continuous exposure) • 10 ng/ml TNFα—24 h, 48 h, 72 h (continuous exposure). Medium was isolated at the indicated times, centrifuged at 1000 rpm for 5 min to remove debris, and stored at −80° C. until use. Protein was quantitated using the Bradford method. 252 ng of protein was loaded on 10% zymogram (gelatin) gels (Novex, San Diego, Calif.) and electrophoresed at 125 volts for 90 min in Tris-Glycine SDS buffer. After running, the gels were incubated in zymogram renaturing buffer (100 ml) for 30 min at room temperature with gentle agitation. The buffer was removed and fresh zymogram developing buffer (100 ml) added and the gels incubated at 37° C. overnight with gentle agitation. The following day the gels were stained with 0.5% coomassie blue R-250 for 30 min, and destained. Areas of protease activity show up as clear bands. This assay will detect MMP-2 and MMP-9.
(§2) Same protocol as above. Treatment conditions were as follows: • Control—24 h • 4 mM SH—24 h (continuous exposure) • 10 mM L-NAC—24 h (continuous exposure) • 10 mM L-NAC—24 h (continuous exposure) • 10 mM Captopril—24 h (continuous exposure) • 50 mM EDTA—24 h (chelator) • 4 mM SH+50 mM EDTA—24 h • 10 mM L-NAC+50 mM EDTA—24 h • 10 mM D-NAC+50 mM EDTA—24 h • 10 mM Captopril+50 mM EDTA—24 h • 40 μM SH—24 h • 10 ng/ml TNFα—24 h

MMP-9 = target: T2, MMP-9 (Homo sapiens, UniProt P14780); assay: Gelatin zymography of medium from treated U251 glioma cells, MMP-9; type: cell-based; settings: for reduction of MMP-9 activity/secretion: 10 mM
T2 construct: Medium was isolated at the indicated times, centrifuged at 1000 rpm for 5 min to remove debris; endogenous in cells; host or cells: U251 human glioma cells (serum-free conditioned medium)
Procedure: as §1, §2

MnSOD gene expression = MnSOD gene expression in glioma cells (Northern blot); type: cell-based, human
Description: FIG. 6. Effect of Amifostine on MnSOD Expression. Kinetics of manganese superoxide dismutase (MnSOD) gene expression induced in human glioma tumor cells as a function of time by WR1065, the active form of amifostine, are presented for comparison. Also included in the upper right hand corner is a representative Northern blot used to quantitate gene expression. Gene expression was induced over 3-fold as compared to untreated controls.
As previously discussed, manganese superoxide dismutase (MnSOD) has been identified as important anti-oxidant gene whose expression reduces the malignant/metastatic phenotype of cancer cells (Safford et al., 1995). Tumor cells are relatively lower in MnSOD than are normal cells. Increasing MnSOD in tumor cells causes them to loose their ability to be metastatic. As described in FIG. 6, exposure of tumor cells to WR-1065 leads to enhanced gene expression of MnSOD. […] The peak level of MnSOD expression was almost twice that observed in normal human endothelial cells exposed to WR-1065.

SA-NH = assay: Spontaneous lung metastasis assay, SA-NH sarcoma implanted i.m., leg amputated; type: in vivo, C3Hf/Kam mice; settings: for probability of developing spontaneous metastases (FIG. 1): 200, 100 or 50 mg/kg i.p., greater effects at the lower doses
Procedure: (§3) Animal system and experimental tumors. Experiments have been performed using C3Hf/Kam mice obtained from the University of Texas M.D. Anderson Cancer Center, Houston, Tex. Male mice were at least 110 days of age at the initiation of studies. Studies involving tumors included the use of two syngeneic adenocarcinomas (MCa-K and OCa-I,) and one sarcoma (SA-NH). Tumors were grown in the hind legs or flanks of animals. Single-cell suspensions of 5×10^5 viable tumor cells prepared from excised tumors were injected into the hind leg (spontaneous metastasis assay) or the lateral tail veins (artificial metastasis assay) of mice to develop pulmonary nodules (D. J. Grdina et al., 1974; D. J. Grdina et al., 1977; N. Suzuki et al., 1977; D. J. Grdina et al., 1978). For the spontaneous metastases studies, each thiol was administered on the first day following tumor cell inoculation, and then every third day until the tumor reaches 8.0 to 8.5 mm in diameter. At that time the tumor bearing leg is amputated and thiols were administered two and four days later. Twenty-three days following amputation, the animals were sacrificed, their lungs removed, fixed in Bouin's solution, and lung metastases counted. For the artificial metastases studies, mice were sacrificed 14 days after tumor cell inoculation and lung metastases counted (D. J. Grdina et al., 1974; D. J. Grdina et al., 1977; N. Suzuki et al., 1977; D. J. Grdina et al., 1978).
This tumor is p53 wild-type (R. Schimming et al., 1999). A tumor cell suspension containing 5×10^5 viable SA-NH cells was implanted i.m. into the right thighs of three month old male C3Hf/Kam mice. When tumors grew to 8 to 8.5 mm in diameter, each tumor bearing leg was amputated and the animals were then sacrificed 23 days later to assess both the incidence of mice developing metastases and numbers of spontaneous lung metastases formed per mouse. To assess the effects of amifostine on this process, different groups of mice were injected i.p. with 200, 100, or 50 mg/kg of WR-2721 according to the following protocol: drug administration on the first day following inoculation with tumor cells and then every third day until amputation with a final injection 2 days later.
Presented in Table 1 is a comparison of the effects of amifostine on the mean number of spontaneous metastases formed in the lungs of mice. Table 2 presents data regarding the effects of amifostine on affecting the incidence of metastasis formation using these tumor systems. The level of significance was determined using a t-test for binomial proportions (Walpole and Myers, 1978). Treatment of animals with 50 mg/kg of amifostine reduced the incidence of spontaneous metastasis development by these tumors at a level of significance of p<0.025.

MCa-K = assay: Spontaneous lung metastasis assay, MCa-K adenocarcinoma; type: in vivo, C3Hf/Kam mice; settings: 50 mg/kg WR-2721, MCaK tumor
Procedure: as §3, with “For the spontaneous metastases studies, each thiol was administered on the first day following tumor cell inoculation, and then every third day until the tumor reaches 8.0 to 8.5 mm in diameter. At that time the tumor bearing leg is amputated and thiols were administered two and four days later.” left out
(§4) Presented in Table 1 is a comparison of the effects of amifostine on the mean number of spontaneous metastases formed in the lungs of mice. […] The level of significance was determined using a t-test for binomial proportions (Walpole and Myers, 1978). […]

OCa-I = assay: Spontaneous lung metastasis assay, OCa-I adenocarcinoma; type: in vivo, C3Hf/Kam mice; settings: 50 mg/kg WR-2721, OCa tumor
Procedure: as §3, with “For the spontaneous metastases studies, each thiol was administered on the first day following tumor cell inoculation, and then every third day until the tumor reaches 8.0 to 8.5 mm in diameter. At that time the tumor bearing leg is amputated and thiols were administered two and four days later.” left out
as §4

angiostatin = assay: Blood angiostatin by Western blot in mice with or without SA-NH tumor; type: in vivo, C3Hf/Kam mice
Procedure: FIG. 2. SA-NH Murine Tumor. Tumor cells (3–5×10^5) were injected into right leg muscle of C3Hf/Kam male mice. Each group consisted of 5 mice. Mice were injected i.p. with 50 mg/kg of Amifostine (Ami) one day after innoculation with viable tumor and every third day (4 times) until amputation (Amp). When tumors grew to 8–9 mm in diameter, the tumor-bearing leg was amputated. Blood was collected using a 1 ml tuberculine syringe rinsed with EDTA (100 mg/ml) or heparin and placed in an EDTA-coated microcentrifuge tube and centrifuged at 250 rpm for 10 min. The resulting supernatants were collected and frozen at −70° C. until assayed for angiostatin by Western blot analysis.
Low non-cytoprotective doses of Amifostine, in the range of 50 to 100 mg/kg, were administered every other day for six days to C3Hf/Kam mice bearing SA-NH sarcomas and twice thereafter following the surgical removal of the tumors. […] Amifostine or its free thiol form designated WR-1065 was further evaluated regarding three processes implicated in the metastatic process. (FIG. 2).

[1] = Blood level of WR-2721 in mice; type: in vivo; settings: 400 mg/kg dose
Procedure: It is also understood that uptake after is species and organ/tissue dependent. The applicable conversion factors and physiological assumptions to be made concerning uptake and concentration measurement are well-known and would permit those of skill in the art to convert one concentration measurement to another and make reasonable comparisons and conclusions regarding the doses, afficacies and results described herein. By way of example only, in mice given 100 mg/kg WR-2721, 30-minute blood levels are reported at 49 micrograms/ml or 0.23 mM. Accordingly, a 400 mg/kg dose would correspond to a concentration of WR-2721 of about 1.0 mM. Likewise, a human subject given about 740 mg/m^2 of WR-2721 (by IV infusion) would have an initial plasma level at about 100 micromol/liter or 0.1 mM.

[2] = C3H mouse system; cited from earlier work
[3] = system: hprt locus in splenocytes; settings: mice; cited from earlier work
[4] = cited from earlier work
[5] = TNFα 10 ng/ml, continuous exposure

T2 sequence (P14780 94-707): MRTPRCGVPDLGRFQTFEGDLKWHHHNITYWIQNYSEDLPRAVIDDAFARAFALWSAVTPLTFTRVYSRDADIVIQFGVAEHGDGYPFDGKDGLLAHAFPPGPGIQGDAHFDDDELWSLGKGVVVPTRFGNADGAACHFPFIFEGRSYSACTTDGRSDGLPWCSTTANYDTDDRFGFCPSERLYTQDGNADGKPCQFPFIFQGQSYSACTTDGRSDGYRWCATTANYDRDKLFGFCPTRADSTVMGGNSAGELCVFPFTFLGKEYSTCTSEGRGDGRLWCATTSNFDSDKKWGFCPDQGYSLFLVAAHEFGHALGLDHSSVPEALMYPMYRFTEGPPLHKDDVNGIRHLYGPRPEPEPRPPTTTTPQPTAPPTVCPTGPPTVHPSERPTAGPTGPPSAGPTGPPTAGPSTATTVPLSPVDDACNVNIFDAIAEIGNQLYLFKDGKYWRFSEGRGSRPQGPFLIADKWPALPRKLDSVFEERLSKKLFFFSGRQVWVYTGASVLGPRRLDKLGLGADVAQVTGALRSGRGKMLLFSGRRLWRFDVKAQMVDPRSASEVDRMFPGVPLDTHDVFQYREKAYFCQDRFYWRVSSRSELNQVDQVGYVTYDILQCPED

Molecule: C[C@H](CS)C(=O)N1CCC[C@H]1C(=O)O [Captopril]
reduction of MMP-2 activity/secretion (MMP-2): completely inhibited
reduction of MMP-9 activity/secretion (MMP-9; 24 h): completely inhibited

Molecule: CC(=O)N[C@H](CS)C(=O)O [D-NAC]
reduction of MMP-2 activity/secretion (MMP-2): 74%
reduction of MMP-9 activity/secretion (MMP-9; 24 h): 85%

Molecule: O=C(O)CN(CCN(CC(=O)O)CC(=O)O)CC(=O)O [EDTA]
inhibition of MMP-2 activity/secretion (MMP-2; 50 mM EDTA): completely inhibiting; also recorded: completely inhibited; also recorded: completely blocked
inhibition of MMP-9 activity/secretion (MMP-9; 50 mM EDTA, 24 h): completely inhibiting; also recorded: completely inhibited; also recorded: completely blocked

Molecule: CC(=O)N[C@@H](CS)C(=O)O [L-NAC, N-acetyl-L-cysteine]
reduction of MMP-2 activity/secretion (MMP-2): 69%
reduction of MMP-9 activity/secretion (MMP-9; 24 h): 73%

Molecule: Tumor Necrosis Factor alpha [TNFα]
suppression of MMP-2 secretion at 48 h and 72 h (MMP-2; [5]): still able to suppress
MMP-9 activity at 48 h and 72 h (MMP-9; [5]): continued to cause enhanced activity

The next lines start with results.

ability to reduce MMP-2 secretion at 48 h and 72 h (MMP-2; 40 μM SH, continuous exposure): lost
reduction of MMP-2 activity/secretion relative to control (MMP-2; 40 μM WR-1065 (SH), 24 h (b119 prints 45 h)): 45%
MMP-2 activity, of control levels (MMP-2; 40 μM, 24 h exposure): 55%
inhibition of MMP-2 activity/secretion (MMP-2; 4 mM WR-1065 (SH)): completely inhibiting
inhibition of MMP-2 activity/secretion (MMP-2; 4 mM WR-1065 (SH), listed as SH): completely inhibited
ability to affect MMP-9 activity at 48 h and 72 h (MMP-9; 40 μM SH, continuous exposure): lost
reduction of MMP-9 activity relative to control (MMP-9; 40 μM WR-1065 (SH), 24 h): 5%
inhibition of MMP-9 activity/secretion (MMP-9; 4 mM WR-1065 (SH), 24 h): completely inhibiting
inhibition of MMP-9 activity/secretion (MMP-9; 4 mM WR-1065 (SH), 24 h, listed as SH): completely inhibited
Molecule: NCCCNCCS [WR-1065, 2-[(aminopropyl)amino]ethanethiol]
peak level of MnSOD expression relative to normal human endothelial cells exposed to WR-1065 (MnSOD gene expression; U87 glioma cells versus normal human endothelial cells): almost twice
MnSOD gene expression during an additional 12 h (MnSOD gene expression; human glioma U87 cells, 12 to 24 h): remained at that elevated level
MnSOD gene expression enhanced (MnSOD gene expression; human glioma U87 cells, after 12 h): 2.5 fold
MnSOD gene expression induced as compared to untreated controls (MnSOD gene expression; human glioma tumor cells, FIG. 6 legend): over 3 fold

concentration of WR-2721 corresponding to dose [1]: about 1.0 mM
Molecule: NCCCNCCSP(=O)(O)O [WR-2721, S-2-(3-aminopropylamino)ethyl phosphorothioic acid]
number of spontaneous metastases (mean ± s.e.) (SA-NH; 50 mg/kg WR-2721 i.p., lung metastases per mouse, Sa-NH tumor): 2.9 ± 1.1
reduction in the development of spontaneous metastases in the lungs (SA-NH; 50 to 100 mg/kg every other day for six days and twice after surgical removal of tumor): four-fold
probability of developing spontaneous metastases (FIG. 1) (SA-NH; listed as Amifostine): actually reduced it
probability of developing spontaneous metastases (FIG. 1) (SA-NH; listed as amifostine): reduces the chances of developing spontaneous metastases
number of spontaneous metastases (mean ± s.e.) (MCa-K): 1.7 ± 1.3
number of spontaneous metastases (mean ± s.e.) (OCa-I): 0.5 ± 0.14
enhancement of angiostatin levels found in control mice (angiostatin; Amifostine injections, 50 mg/kg i.p. (FIG. 2)): four-fold
angiostatin level after removal of tumors (angiostatin; continued Amifostine treatment following tumor removal): equal to presurgery levels
induction of angiostatin production (angiostatin; tumor-free and tumor-bearing mice (FIG. 2)): effective in inducing angiostatin production
cytoprotection at doses below 100 mg/kg [2]: completely ineffective
dose required for maximum cytoprotection [2]: 400 mg/kg
doses at which the antimutagenic effect diminishes [3]: less than 10 mg/kg
net charge ([4]; disulfide form): +4
net charge ([4]; thiol form): +2
